Laboratory results as given in PubChem BioAssay (NCI).
Where “and” joins values, the source holds several entries; their conditions need not be identical. Equal entries are not always repeated.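 Protocol summary: plate cells (96-well), add compound at 5 concentrations, incubate 48 h, interpolate endpoints linearly. Here, GI50 denotes the concentration required for 50% inhibition of growth. At the TGI there is no net growth.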

What was measured:
Test in all cases: NCI tumour cell line growth inhibition, 48 h
SNB-19 CNS = system: SNB-19 CNS
SF-539 CNS = system: SF-539 CNS
CCRF-CEM leukemia = system: CCRF-CEM leukemia
SK-MEL-28 melanoma = system: SK-MEL-28 melanoma
SK-MEL-5 melanoma = system: SK-MEL-5 melanoma
IGROV1 ovarian = system: IGROV1 ovarian
SN12C renal = system: SN12C renal
786-0 renal = system: 786-0 renal
SR leukemia = system: SR leukemia
HOP-62 NSCLC = system: HOP-62 NSCLC

SMILES	TGI (SNB-19 CNS)	TGI (SF-539 CNS)	TGI (CCRF-CEM leukemia)	TGI (SK-MEL-28 melanoma)	TGI (SK-MEL-5 melanoma)	TGI (IGROV1 ovarian)	TGI (SN12C renal)	TGI (786-0 renal)	TGI (SR leukemia)	TGI (HOP-62 NSCLC)	GI50 (SNB-19 CNS)	GI50 (SF-539 CNS)	GI50 (CCRF-CEM leukemia)	GI50 (SK-MEL-28 melanoma)	GI50 (SK-MEL-5 melanoma)	GI50 (IGROV1 ovarian)	GI50 (SN12C renal)	GI50 (786-0 renal)	GI50 (SR leukemia)	GI50 (HOP-62 NSCLC)
CCOC(=N)CC(=O)Nc1ccc(Cl)cc1	> 100 µM	> 100 µM	> 100 µM	> 100 µM	> 100 µM	> 100 µM	> 100 µM	> 100 µM	> 100 µM	> 100 µM	–	–	–	–	–	–	–	–	–	–
CNc1ccccc1C(=O)N/N=C/C=C/c1ccccc1	> 100 µM	4.91 µM	97 µM	> 100 µM	31.3 µM	> 100 µM	> 100 µM	> 100 µM	> 88.8 µM	> 61.6 µM	7.01 µM	1090 nM	2.39 µM	6.88 µM	849 nM	4.41 µM	3.22 µM	15.6 µM	402 nM	6.9 µM
C[Si](C)(C)C#CCO[Si](C)(C)C	> 100 µM	52.3 µM	> 64 µM	> 100 µM	> 100 µM	36.8 µM	> 100 µM	> 78.8 µM	> 61.5 µM	> 100 µM	–	–	–	–	–	–	–	–	–	–
O=C(Nc1ccc(-c2nc3cc4ccccc4cc3[nH]2)cc1)c1cccc(Br)c1	> 100 µM	26.7 µM	80.4 µM	16.8 µM	21.4 µM	42.2 µM	34.9 µM	18 µM	8.66 µM	20.4 µM	39.2 µM	12900 nM	9.55 µM	4.33 µM	6580 nM	15 µM	8.67 µM	5.48 µM	2340 nM	7.28 µM
CCC/C(=N\NC(=S)N1CCN(c2ccccn2)CC1)c1ccccn1	> 4.24 µM and 1.7 µM	1.82 µM and 1.11 µM	0.0216 µM and 0.0281 µM	> 10 µM and 1.47 µM	2.41 µM and 1.57 µM	2.3 µM and 3.11 µM	1.94 µM and 1.46 µM	1.82 µM and 1.94 µM	0.117 µM	2.92 µM and 1.59 µM	–	150 nM and 145 nM	< 0.001 µM	–	–	–	0.339 µM	0.0284 µM	–	0.0603 µM
CC(=O)N(C)OC(=O)CC(=O)c1ccccc1	> 100 µM	> 100 µM	> 100 µM	> 100 µM	> 100 µM	> 100 µM	> 100 µM	> 100 µM	> 100 µM	> 100 µM	–	–	–	–	–	–	–	–	–	–
O=C(Nc1ccc(Cl)c([N+](=O)[O-])c1)Nc1nc2ccccc2s1	30.8 µM	16.9 µM	20.8 µM	21.3 µM	4.17 µM	17.4 µM	19 µM	26.8 µM	16.4 µM	12 µM	4.87 µM	3770 nM	3.88 µM	4.95 µM	1880 nM	3.62 µM	3.74 µM	10.3 µM	3940 nM	3.21 µM
C/C(=N\N=C(N)N)C(CN(CC(C)C)CC(C)C)C(=O)Nc1ccc(C)cc1C (stereo not given)	> 100 µM	> 100 µM	> 100 µM	> 100 µM	> 100 µM	> 100 µM	> 100 µM	> 100 µM	> 100 µM	> 100 µM	–	–	–	–	–	–	–	–	–	–
